Experiments:
[1] = set-up: method as in Villablanca et al, 1995; conditions: high-dose pulse therapy after autologous bone marrow transplantation or non-myeloablative therapy; ref Villablanca et al, 1995; cited from earlier work
CYP26A1 = CYP26A1 expression in SH-SY5Y xenograft tumours; assay type: in vivo, CD-1 nude mice
Procedure: All in vivo experiments were approved by the relevant institutional animal welfare committees, and performed according to national law. Female athymic nude mice (CD-1 nu/nu, Charles River) used for antitumour studies were maintained and handled in isolators, under specific pathogen-free conditions, at 24°C with a 12 h light, 12 h dark cycle. Tumours were generated by implantation of SH-SY5Y cells subcutaneously (s.c.) into one flank of CD-1 nude mice (1 × 10^7 cells per animal).
Treatments began when the tumours were between 7 and 10 mm in length and breadth. Retinoids and R116010 were initially dissolved in DMSO before 10- or 20-fold dilutions in PBS, respectively. For pharmacokinetic studies, the animals were dosed with ATRA or 13cisRA (each 100 mg kg^−1) orally for 0.5, 2 and 6 h. […]
RNA was reverse-transcribed using Promega's Reverse Transcription System according to the manufacturer's instructions, using random hexamer primers. […] As internal standard, β-actin was measured simultaneously using the endogenous control assay provided by Applied Biosystems. […] Standard curves were generated from serial dilutions of cDNA prepared from cells treated with ATRA (1 μM) and the data were analysed using the GeneAmp Sequence Detection System software. CYP26C1 expression was analysed as described previously ([Taimi et al, 2004]).

[2] = test system: SH-SY5Y, NGP, SH-EP and GIMEN cells; assay: Intracellular ATRA and 13cisRA concentrations in neuroblastoma cells, normal-phase HPLC; assay type: cell-based, human
Procedure: SH-SY5Y, SH-EP (N- and S-type cells respectively derived from the parental line SK-N-SH), LAN6, IMR-32, NGP and GIMEN neuroblastoma cell lines were cultured routinely in RPMI 1640 medium containing fetal calf serum (10%) and L-glutamine (2 mM). Cells were grown at 37°C in a humidified incubator containing 5% CO2.
13-cis-Retinoic acid and ATRA were dissolved in DMSO and diluted in cell culture medium to obtain final concentrations of 0.1–10 μM. The final concentration of DMSO in all cases was <0.2%. All experiments were performed in dim light and tubes containing retinoids were wrapped in aluminium foil.
Cell pellets obtained from retinoid incubations were re-suspended in 2 ml cell culture medium and disrupted by passing the samples several times through a syringe and hypodermic needle (25G × 1 inches, 0.5 mm × 25 mm; Terumo, Somerset, NJ, USA). Tumour and liver tissues were re-suspended in PBS and homogenised (T25 homogeniser, IKA Laboratories, Staufen, Germany). Retinoids were extracted as described previously ([Veal et al, 2002]; [Armstrong et al, 2005b]). Samples were reconstituted in 200 μl mobile phase A (n-hexane:dichloromethane:propan-2-ol, 400 : 1 : 0.27) and analysed by normal-phase HPLC as described previously ([Veal et al, 2002]). For LC/MS analysis, samples were reconstituted in 200 μl mobile phase A (50% acetonitrile, 50% (0.2%) acetic acid, v v^−1).
Quantification of retinoid levels was carried out by HPLC analysis using a Waters 2690 Separations Module and 996 Photodiode array detector (Waters Ltd, Elstree, UK) and Waters Millennium software for data acquisition. Cell volumes were determined as described previously ([Veal et al, 2002]), and intracellular RA concentrations were expressed in micromolars.

Compound | Peak drug levels in patients [1] [µM] | Increase in CYP26A1 expression in tumours (CYP26A1; 13cisRA with two doses of R116010 at 2.5 mg kg^−1 vs 13cisRA alone, individual animals, data not shown) | Effect on CYP26A1 expression in tumours (CYP26A1; R116010 prior ATRA) | Effect on ATRA concentrations after incubation with 13cisRA ([2]; NGP cells, 10 μM 13cisRA with 1 or 10 μM R116010, 24 h) | Effect on ATRA levels after incubation with 13cisRA ([2]; SH-EP or GIMEN cells, 10 μM 13cisRA with 1 or 10 μM R116010, 24 h) | Effect on intracellular ATRA concentrations after ATRA treatment ([2]; SH-EP or GIMEN cells, 10 μM ATRA with 1 or 10 μM R116010, 24 h) | Effect on intracellular ATRA concentrations after ATRA treatment ([2]; SH-SY5Y and NGP cells, 10 μM ATRA with 1 or 10 μM R116010, 24 h) | Effect on ATRA concentrations after incubation with 13cisRA ([2]; SH-SY5Y cells, 10 μM 13cisRA with 1 or 10 μM R116010, 24 h) | Effect on 13cisRA concentrations after incubation with 13cisRA ([2]; all four cell lines, 10 μM 13cisRA with 1 or 10 μM R116010, 24 h) | Effect on 13cisRA levels after incubation with ATRA ([2]; any of the cell lines, 10 μM ATRA with 1 or 10 μM R116010, 24 h)
CC1=C(/C=C/C(C)=C/C=C/C(C)=C\C(=O)O)C(C)(C)CCC1 [13cisRA, 13-cis-retinoic acid] | > 5 |  |  |  |  |  |  |  |  | 
C[C@@H]([C@H](c1ccc(Nc2nc3ccccc3s2)cc1)n1ccnc1)N(C)C [R116010] |  | 4- to 20 fold | not significantly different | similar, although nonsignificant, trend | no observable effect | no effect | significant increases | significant increase | no significant changes | no effect

Reference: PMC2359919, “Molecular targeting of retinoic acid metabolism in neuroblastoma: the role of the CYP26 inhibitor R116010 in vitro and in vivo” (British Journal of Cancer, 2007)
